Results taken from PMC6521205 (Viruses, 2019).
Like-named read-outs stand apart in the source and are kept apart here.

How the values were obtained:
[1] = system: ZIKV PRVABC59/Human/2015/Puerto Rico; assay: CellTiter-Glo activity assay, ZIKV PRVABC59-infected neural stem cells; format: cell-based, Zika virus; settings: for EC50: human neural stem cells, MOI 10, 72 h post-infection, CellTiter-Glo, ± SE, n = 4
[2] = system: ZIKV H/PAN/2016/BEI-259634; assay: CellTiter-Glo activity assay, ZIKV H/PAN-infected neural stem cells; format: cell-based, Zika virus; settings: read-out: EC50 H/PAN ZIKV
[3] = CellTiter-Glo toxicity in mock-infected neural stem cells; settings: human
human neural stem cells = assay: as above; settings: mock-infected neural stem cells, 72 h, CellTiter-Glo, ± SE, n = 4
[4] = system: ZIKV H/PAN/2016/BEI-259634; assay: Plaque assay of ZIKV titers from treated hNSC cultures; format: cell-based, Zika virus; settings: human fetal neural stem cells, H/PAN MOI 0.1, 48 h post-infection
[5] = system: ZIKV H/PAN/2016/BEI-259634; format: cell-based, Zika virus; settings: GSC 387 cells, H/PAN MOI 10, 72 h post-infection
ZIKV RdRP = ZIKV RdRP (Zika virus, UniProt A0A024B7W1); assay: Single nucleotide incorporation assay; format: biochemical; settings: 150 µM nucleotide, 37 °C; for observed rate of incorporation, kobs: 1 µM RdRP, 200 nM P/T substrate, single exponential fit, n = 2
[6] = Zika virus, Neural stem cell, in Homo sapiens
[7] = human neural stem cells, MOI 10, 72 h post-infection, CellTiter-Glo, ± SE, n = 4

Sequence of ZIKV RdRP (A0A024B7W1 2772-3423): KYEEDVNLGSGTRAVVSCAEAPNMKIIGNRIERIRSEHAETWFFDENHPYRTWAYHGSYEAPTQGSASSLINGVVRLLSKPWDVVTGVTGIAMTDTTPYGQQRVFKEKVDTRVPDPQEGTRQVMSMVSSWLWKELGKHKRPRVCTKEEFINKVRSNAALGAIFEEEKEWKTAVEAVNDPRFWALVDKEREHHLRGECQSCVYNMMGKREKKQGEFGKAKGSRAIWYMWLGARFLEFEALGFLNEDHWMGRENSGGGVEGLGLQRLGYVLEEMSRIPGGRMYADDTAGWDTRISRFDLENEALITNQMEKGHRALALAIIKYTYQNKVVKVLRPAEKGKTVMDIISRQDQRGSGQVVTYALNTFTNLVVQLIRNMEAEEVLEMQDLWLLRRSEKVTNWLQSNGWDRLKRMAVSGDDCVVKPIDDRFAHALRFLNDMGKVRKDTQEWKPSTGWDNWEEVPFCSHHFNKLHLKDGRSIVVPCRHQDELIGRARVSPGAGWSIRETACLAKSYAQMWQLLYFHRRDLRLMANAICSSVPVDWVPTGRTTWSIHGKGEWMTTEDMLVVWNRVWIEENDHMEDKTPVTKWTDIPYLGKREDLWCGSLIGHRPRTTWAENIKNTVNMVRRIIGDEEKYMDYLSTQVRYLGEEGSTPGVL

SMILES	EC50 [1]	EC50 [2, 7]	CC50 (human neural stem cells)	further results
CSCCOP(=O)(NCCc1c[nH]c2ccccc12)OCC1OC(n2ccc(=O)[nH]c2=O)C(C)(O)C1O (centres unmarked) [(5-(2,4-dioxo-3,4-dihydropyrimidin-1(2H)-yl)-3,4-dihydroxy-4-methyltetrahydrofuran-2-yl)methyl (2-(methylthio)ethyl) (2-(1H-indol-3-yl)ethyl)phosphoramidate]				EC50 [1, 6]: > 50 µM; anti-ZIKV activity (in words) ([1]; neural stem cells, PRVABC59 and H/PAN strains, highest concentration 50 µM): completely abolished activity; EC50 ([2]; Zika virus, Neural stem cell, human neural stem cells, MOI 10, 72 h post-infection, CellTiter-Glo, ± SE, n = 4): > 50 µM; CC50 at 72 h ([3]; mock-infected neural stem cells (NSCs)): > 50 µM
COC1C(COP(=O)(NC(C)C(=O)OC(C)C)Oc2ccccc2)OC(n2ccc(=O)[nH]c2=O)C1O (centres unmarked) [3′-O-Methyluridine aryloxyl phosphoramidate]	> 50 µM	> 50 µM	> 50 µM	
COC1C(O)C(COP(=O)(NC(C)C(=O)OC(C)C)Oc2ccccc2)OC1n1ccc(N)nc1=O (centres unmarked) [2′-O-Methylcytidine aryloxyl phosphoramidate]	> 50 µM	> 50 µM	> 50 µM	
CC(C)OC(=O)C(C)NP(=O)(OCC1OC(n2cnc3c(N)ncnc32)C(C)(O)C1O)Oc1ccccc1 (centres unmarked) [2′-C-Methyladenosine aryloxyl phosphoramidate]	10 ± 1 µM	18 ± 1 µM	42 ± 1 µM	
CC(C)OC(=O)[C@H](C)N[P@](=O)(OC[C@H]1O[C@@H](n2ccc(=O)[nH]c2=O)[C@](C)(F)[C@@H]1O)Oc1ccccc1 [Sofosbuvir, reference compound]				EC50 [1, 6]: 35 ± 1 µM; EC50 ([2]; Zika virus, Neural stem cell, 72 h): 46 ± 1 µM; ZIKV titers by plaque assay ([4]; 30 µM compound): undetectable levels; CC50 at 72 h [3]: > 50 µM; protection from ZIKV-induced cytopathic effect ([5]; 30 µM compound): able to protect against the cytopathic effect
CC(C)OC(=O)C(C)NP(=O)(OCC1CC(O)C(n2ccc(N)nc2=O)O1)Oc1ccccc1 (centres unmarked) [3′-Deoxycytidine aryloxyl phosphoramidate]	> 50 µM	> 50 µM	> 50 µM	
CC(C)OC(=O)C(C)NP(=O)(OCC1OC(n2ccc(N)nc2=O)C(C)(O)C1O)Oc1ccccc1 (centres unmarked) [2′-C-Methylcytidine aryloxyl phosphoramidate]	48 ± 1 µM	> 50 µM		
CC(C)OC(=O)C(C)NP(=O)(OCC1OC(n2ccc(=O)[nH]c2=O)C(C)(O)C1O)Oc1ccccc1 (centres unmarked) [2′-C-methyluridine aryloxyl phosphoramidate]	1 ± 1 µM	2 ± 1 µM	47 ± 1 µM	ZIKV titers by plaque assay ([4]; 10 µM compound): undetectable levels; ZIKV titers by plaque assay ([4]; 30 µM compound): undetectable levels; protection from ZIKV-induced cytopathic effect ([5]; 10 µM compound): better able to protect against ZIKV-induced cytopathic effect; protection from ZIKV-induced cytopathic effect ([5]; 30 µM compound): able to protect against the cytopathic effect
O=c1ccn([C@@H]2O[C@H](COP(=O)(O)OP(=O)(O)OP(=O)(O)O)[C@@H](O)[C@H]2O)c(=O)[nH]1 [UTP]				observed rate of incorporation, kobs (ZIKV RdRP): 0.151 ± 0.004 % incorporation min^−1; time to full incorporation (ZIKV RdRP): ~ 30 min; time to half maximal incorporation (ZIKV RdRP): ≤ 5 min
C[C@@]1(O)[C@H](O)[C@@H](COP(=O)(O)OP(=O)(O)OP(=O)(O)O)O[C@H]1n1ccc(=O)[nH]c1=O [2′-C-methyluridine triphosphate]				observed rate of incorporation, kobs (ZIKV RdRP): 0.016 ± 0.001 % incorporation min^−1; maximal incorporation (plateau) (ZIKV RdRP): 35%; time to half maximal incorporation (ZIKV RdRP): ~ 45 min
C[C@@]1(F)[C@H](O)[C@@H](COP(=O)(O)OP(=O)(O)OP(=O)(O)O)O[C@H]1n1ccc(=O)[nH]c1=O [2′-fluoro-2′-C-methyluridine triphosphate]				observed rate of incorporation, kobs (ZIKV RdRP): 0.0085 ± 0.001 % incorporation min^−1; maximal incorporation (plateau) (ZIKV RdRP): 15%; time to half maximal incorporation (ZIKV RdRP): ~90 min
C#CC1(O)C(O)C(COP(=O)(NC(C)C(=O)OC(C)C)Oc2ccccc2)OC1n1ccc(=O)[nH]c1=O (centres unmarked) [2′-C-Ethynyluridine Aryloxy Phosphoramidate]		0.8 ± 1 µM	> 50 µM	
CC(C)OC(=O)C(C)NP(=O)(OCC1CC(O)C(n2cnc3c(N)ncnc32)O1)Oc1ccccc1 (centres unmarked) [3′-Deoxyadenosine aryloxyl phosphoramidate]	> 50 µM	> 50 µM	> 50 µM	
